This passage reports IC50 results from US20070004660A1, “Synergistic Modulation of Flt3 Kinase Using Alkylquinolines and Alkylquinazolines” (priority 2005, published 2007).

Molecules are shown by their SMILES. Where a name gives a salt, the structure may show the parent alone.

This assay concerns the target T1, wild-type FLT3 receptor (Homo sapiens, UniProt P36888).
T1 construct: host or cells: Baf3 (murine B cell lymphoma line), stably transfected
T1 sequence (P36888 27-993): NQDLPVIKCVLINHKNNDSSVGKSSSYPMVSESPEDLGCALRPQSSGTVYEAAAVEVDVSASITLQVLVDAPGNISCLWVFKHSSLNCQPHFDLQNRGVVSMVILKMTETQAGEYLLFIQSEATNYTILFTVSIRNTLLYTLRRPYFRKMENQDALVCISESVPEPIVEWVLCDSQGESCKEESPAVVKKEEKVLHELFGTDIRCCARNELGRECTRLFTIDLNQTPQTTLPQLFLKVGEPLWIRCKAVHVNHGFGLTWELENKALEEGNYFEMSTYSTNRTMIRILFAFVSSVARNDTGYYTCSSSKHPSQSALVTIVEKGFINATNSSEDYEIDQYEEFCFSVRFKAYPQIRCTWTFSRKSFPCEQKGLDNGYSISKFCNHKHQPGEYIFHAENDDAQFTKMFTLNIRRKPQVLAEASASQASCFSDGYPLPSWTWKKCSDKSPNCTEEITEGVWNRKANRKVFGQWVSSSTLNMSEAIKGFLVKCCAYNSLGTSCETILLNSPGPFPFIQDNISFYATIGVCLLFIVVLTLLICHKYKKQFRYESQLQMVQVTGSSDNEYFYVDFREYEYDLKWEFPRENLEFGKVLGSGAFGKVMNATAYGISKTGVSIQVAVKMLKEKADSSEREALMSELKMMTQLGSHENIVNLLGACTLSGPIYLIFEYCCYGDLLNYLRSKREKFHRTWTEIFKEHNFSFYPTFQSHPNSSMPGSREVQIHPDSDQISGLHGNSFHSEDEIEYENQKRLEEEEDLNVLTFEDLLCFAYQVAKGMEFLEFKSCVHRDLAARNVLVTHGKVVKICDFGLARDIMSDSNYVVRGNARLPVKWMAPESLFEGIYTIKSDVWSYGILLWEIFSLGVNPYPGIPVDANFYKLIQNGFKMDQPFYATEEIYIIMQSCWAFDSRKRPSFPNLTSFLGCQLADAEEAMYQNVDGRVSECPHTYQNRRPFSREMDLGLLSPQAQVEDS
Briefly: Cell-based FLT3 receptor ELISA (FLT ligand-induced phosphorylation in Baf3 FLT3 cells). The following applies: 100 ng/mL Flt ligand, uncertainty ±20%. In outline:
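Receptor phosphotyrosine measured by sandwich ELISA (anti-FLT3 capture, HRP anti-pTyr, luminescence) in FLT3-transfected murine Baf3 cells given 1 h compound pretreatment and 10 min 100 ng/mL FLT ligand after overnight low-serum starvation; triplicates, IC50 from nonlinear regression.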
For orientation: In an ELISA, binding on a coated surface is turned into a signal by an enzyme label.
The IC50 is the concentration that inhibits the measured activity by half. Read a low IC50 as greater potency in that assay. For `COc1cc2ncnc(C3CCN(C(=O)Nc4ccc5ncsc5c4)CC3)c2cc1OC` [Example 24, 4-(6,7-Dimethoxy-quinazolin-4-yl)-piperidine-1-carboxylic acid benzothiazol-6-ylamide], the IC50 came out at 2600 nM.
Next, `CC(=O)N1CCC[C@H]1COc1ccc2c(C3CCN(C(=O)Nc4ccc(N5CCCC5)cc4)CC3)ncnc2c1` [Example 162, (S)-4-[7-(1-Acetyl-pyrrolidin-2-ylmethoxy)-quinazolin-4-yl]-piperidine-1-carboxylic acid (4-pyrrolidin-1-yl-phenyl)-amide]: 10 nM; `CS(=O)(=O)N1CC(Oc2ccc3c(C4CCN(C(=O)Nc5ccc(N6CCCC6)cc5)CC4)ncnc3c2)C1` [Example 171, 4-[7-(1-Methanesulfonyl-azetidin-3-yloxy)-quinazolin-4-yl]-piperidine-1-carboxylic acid (4-pyrrolidin-1-yl-phenyl)-amide]: 10 nM; `O=C(Nc1ccc(N2CCCC2)cc1)N1CCC(c2ncnc3cc(N4CCC(F)CC4)ccc23)CC1` [Compound 195, 4-[7-(4-Fluoro-piperidin-1-yl)-quinazolin-4-yl]-piperidine-1-carboxylic acid (4-pyrrolidin-1-yl-phenyl)-amide]: 81 nM.
For `O=C(Nc1ccc(N2CCOCC2)cc1)N1CCC(c2ncnc3cc(N4CCC(F)CC4)ccc23)CC1` [Compound 196, 4-[7-(4-Fluoro-piperidin-1-yl)-quinazolin-4-yl]-piperidine-1-carboxylic acid (4-morpholin-4-yl-phenyl)-amide], the IC50 is 3 nM.
For `CS(=O)(=O)CCNc1ccc2c(C3CCN(C(=O)Nc4ccc(N5CCOCC5)cc4)CC3)ncnc2c1` [Example 146, 4-[7-(2-Methanesulfonyl-ethylamino)-quinazolin-4-yl]-piperidine-1-carboxylic acid (4-morpholin-4-yl-phenyl)-amide], the IC50 is 87 nM.
Next, `CC(C)Oc1ccc(NC(=O)N2CCC(c3ncnc4ccc(C#CCN5CCOCC5)cc34)CC2)cc1` [Example 15, 4-[6-(3-Morpholin-4-yl-prop-1-ynyl)-quinazolin-4-yl]-piperidine-1-carboxylic acid (4-isopropoxy-phenyl)-amide]: 55 nM; `COc1cc2ncnc(C3CCN(C(=O)Nc4ccc(N5CCOCC5)cc4)CC3)c2cc1OC` [Example 18, 4-(6,7-Dimethoxy-quinazolin-4-yl)-piperidine-1-carboxylic acid (4-morpholin-4-yl-phenyl)-amide]: 104 nM.
Next, `O=C(Nc1ccc(N2CCCC2)cc1)N1CCC(c2ncnc3cc(N4CCOCC4)ccc23)CC1` [Compound 181, 4-(7-Morpholin-4-yl-quinazolin-4-yl)-piperidine-1-carboxylic acid (4-pyrrolidin-1-yl-phenyl)-amide]: 5 nM; `O=C(Nc1ccc(N2CCOCC2)cc1)N1CCC(c2ncnc3cc(N4CCNCC4)ccc23)CC1` [Example 140, 4-(7-Piperazin-1-yl-quinazolin-4-yl)-piperidine-1-carboxylic acid (4-morpholin-4-yl-phenyl)-amide]: 31 nM; `O=C(Nc1ccc(N2CCCC2)cc1)N1CCC(c2ncnc3cc(N4CCC4)ccc23)CC1` [Example 173, 4-(7-Azetidin-1-yl-quinazolin-4-yl)-piperidine-1-carboxylic acid (4-pyrrolidin-1-yl-phenyl)-amide]: 2 nM.
`O=C(Nc1ccc(N2CCCC2)cc1)N1CCC(c2ncnc3cc(-n4ccnc4)ccc23)CC1` [Compound 180, 4-(7-Imidazol-1-yl-quinazolin-4-yl)-piperidine-1-carboxylic acid (4-pyrrolidin-1-yl-phenyl)-amide] yielded an IC50 of 10 nM.
For the compound `CC(=O)N1CCN(c2ccc3c(C4CCN(C(=O)Nc5ccc(N6CCOCC6)cc5)CC4)ncnc3c2)CC1` [Example 141, 4-[7-(4-Acetyl-piperazin-1-yl)-quinazolin-4-yl]-piperidine-1-carboxylic acid (4-morpholin-4-yl-phenyl)-amide], the IC50 stood at 2 nM.
Next, `COc1cc2ncnc(C3CCN(C(=O)Nc4ccc(OC(C)C)cc4)CC3)c2cc1OC` [Example 1, 4-(6,7-Dimethoxy-quinazolin-4-yl)-piperidine-1-carboxylic acid (4-isopropoxy-phenyl)-amide hydrochloride]: 17 nM; `COc1cc2ncnc(C3CCN(C(=O)Nc4ccc(C5CCCCC5)cc4)CC3)c2cc1OC` [Example 21, 4-(6,7-Dimethoxy-quinazolin-4-yl)-piperidine-1-carboxylic acid (4-cyclohexyl-phenyl)-amide]: 2 nM.
`CN1CCN(c2ccc3c(C4CCN(C(=O)Nc5ccc(N6CCCC6)cc5)CC4)ncnc3c2)CC1=O` [Compound 184, 4-[7-(4-Methyl-3-oxo-piperazin-1-yl)-quinazolin-4-yl]-piperidine-1-carboxylic acid (4-pyrrolidin-1-yl-phenyl)-amide] came in with an IC50 of 98 nM.
The compound `CC(C)c1ccc(NC(=O)CN2CCC(c3ncnc4ccccc34)CC2)cc1` [Example 16, N-(4-Isopropyl-phenyl)-2-(4-quinazolin-4-yl-piperidin-1-yl)-acetamide] came in with an IC50 of 336 nM.
Next, `O=C(Nc1ccc(N2CCOCC2)cc1)N1CCC(c2ncnc3cc(N4CCN(CCO)CC4)ccc23)CC1` [Example 137, 4-{7-[4-(2-Hydroxy-ethyl)-piperazin-1-yl]-quinazolin-4-yl}-piperidine-1-carboxylic acid (4-morpholin-4-yl-phenyl)-amide]: 41 nM; `O=C(Nc1ccc(N2CCCC2)cc1)N1CCC(c2ncnc3cc(OCCCN4CCC[C@H]4CO)ccc23)CC1` [Example 161, (S)-4-{7-[3-(2-Hydroxymethyl-pyrrolidin-1-yl)-propoxy]-quinazolin-4-yl}-piperidine-1-carboxylic acid (4-pyrrolidin-1-yl-phenyl)-amide]: 59 nM; `CN1CCN(c2ccc3c(C4CCN(C(=O)Nc5ccc(N6CCCC6)nc5)CC4)ncnc3c2)CC1` [Example 160, 4-[7-(4-Methyl-piperazin-1-yl)-quinazolin-4-yl]-piperidine-1-carboxylic acid (6-pyrrolidin-1-yl-pyridin-3-yl)-amide]: 11 nM.
Next, `O=C(Nc1ccc(N2CCCC2)cc1)N1CCC(c2ncnc3cc(N4CCCC4)ccc23)CC1` [Compound 179, 4-(7-Pyrrolidin-1-yl-quinazolin-4-yl)-piperidine-1-carboxylic acid (4-pyrrolidin-1-yl-phenyl)-amide]: 49 nM; `O=C(Nc1ccc(N2CCOCC2)cc1)N1CCC(c2ncnc3cc(N4CC[C@H](O)C4)ccc23)CC1` [Example 128, 4-[7-(3-Hydroxy-pyrrolidin-1-yl)-quinazolin-4-yl]-piperidine-1-carboxylic acid (4-morpholin-4-yl-phenyl)-amide]: 58 nM; `CCN1CCN(c2ccc3c(C4CCN(C(=O)Nc5ccc(N6CCCC6)cc5)CC4)ncnc3c2)CC1` [Compound 187, 4-[7-(4-Ethyl-piperazin-1-yl)-quinazolin-4-yl]-piperidine-1-carboxylic acid (4-pyrrolidin-1-yl-phenyl)-amide]: 12 nM.
Compound `CS(=O)(=O)N1CCN(c2ccc3c(C4CCN(C(=O)Nc5ccc(N6CCCC6)cc5)CC4)ncnc3c2)CC1` [Example 167, 4-[7-(4-Methanesulfonyl-piperazin-1-yl)-quinazolin-4-yl]-piperidine-1-carboxylic acid (4-pyrrolidin-1-yl-phenyl)-amide] had an IC50 of 3 nM.
In turn, `CN(C)[C@@H]1CCN(c2ccc3c(C4CCN(C(=O)Nc5ccc(N6CCOCC6)cc5)CC4)ncnc3c2)C1` [Example 150, (R)-4-[7-(3-Dimethylamino-pyrrolidin-1-yl)-quinazolin-4-yl]-piperidine-1-carboxylic acid (4-morpholin-4-yl-phenyl)-amide] showed an IC50 of 19 nM.
On to `O=C(Nc1ccc(N2CCCC2)cc1)N1CCC(c2ncnc3cc(O[C@@H]4CCOC4)ccc23)CC1` [Compound 191, (R)-4-[7-(Tetrahydro-furan-3-yloxy)-quinazolin-4-yl]-piperidine-1-carboxylic acid (4-pyrrolidin-1-yl-phenyl)-amide], for which half-maximal inhibition (IC50) was put at 144 nM.
Next, `O=C(Nc1ccc(N2CCCC2)cc1)N1CCC(c2ncnc3cc(N4CCN(c5ccncc5)CC4)ccc23)CC1` [Compound 194, 4-[7-(4-Pyridin-4-yl-piperazin-1-yl)-quinazolin-4-yl]-piperidine-1-carboxylic acid (4-pyrrolidin-1-yl-phenyl)-amide]: 11 nM.
